Type in all cases: biochemical
One assay addresses T1, human Yes1 enzyme (Homo sapiens, UniProt P07947).
T1 construct: made in house
Briefly: Yes1 enzyme inhibitory activity (time-resolved fluorometry, biotinylated peptide phosphorylation). To be noted: read-out: YES_IC50. Put shortly: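 Inhibition was expressed against a compound-free control to give IC50, using TR-FRET read-out (Eu-cryptate anti-pTyr antibody, streptavidin-XL665).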

For a further assay, the target named is T2, human Src enzyme (Homo sapiens, UniProt P12931).
T2 construct: purchased Carna Biosciences, Inc. 08-173
T2 sequence (P12931 whole entry): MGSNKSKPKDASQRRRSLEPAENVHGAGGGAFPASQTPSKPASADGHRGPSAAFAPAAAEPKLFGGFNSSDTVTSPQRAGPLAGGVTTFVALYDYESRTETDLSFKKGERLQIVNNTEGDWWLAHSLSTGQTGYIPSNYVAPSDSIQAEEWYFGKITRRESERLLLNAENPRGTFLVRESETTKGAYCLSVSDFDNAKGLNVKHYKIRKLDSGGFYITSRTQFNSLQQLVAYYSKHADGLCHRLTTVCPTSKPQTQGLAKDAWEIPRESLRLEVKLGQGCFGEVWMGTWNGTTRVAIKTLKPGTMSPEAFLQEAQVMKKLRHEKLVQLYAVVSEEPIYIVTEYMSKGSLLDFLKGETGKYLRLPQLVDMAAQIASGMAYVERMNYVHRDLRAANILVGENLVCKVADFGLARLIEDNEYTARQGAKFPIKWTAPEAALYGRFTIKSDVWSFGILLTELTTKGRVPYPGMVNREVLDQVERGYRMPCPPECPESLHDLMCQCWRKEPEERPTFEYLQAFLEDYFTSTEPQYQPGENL
Briefly: Src enzyme inhibitory activity (time-resolved fluorometry, biotinylated peptide phosphorylation). To be noted: read-out: SRC_IC50. The procedure, abridged: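 Compounds were tested for blocking tyrosine phosphorylation of a biotinylated peptide substrate by recombinant human Src. Phosphorylated product was quantified by time-resolved fluorometry using europium cryptate and XL665 conjugates, and IC50 was calculated against the compound-free control.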

For a further assay, the target named is T3, human Lck enzyme (Homo sapiens, UniProt P06239).
T3 construct: purchased Carna Biosciences, Inc. 08-170
T3 sequence (P06239 whole entry): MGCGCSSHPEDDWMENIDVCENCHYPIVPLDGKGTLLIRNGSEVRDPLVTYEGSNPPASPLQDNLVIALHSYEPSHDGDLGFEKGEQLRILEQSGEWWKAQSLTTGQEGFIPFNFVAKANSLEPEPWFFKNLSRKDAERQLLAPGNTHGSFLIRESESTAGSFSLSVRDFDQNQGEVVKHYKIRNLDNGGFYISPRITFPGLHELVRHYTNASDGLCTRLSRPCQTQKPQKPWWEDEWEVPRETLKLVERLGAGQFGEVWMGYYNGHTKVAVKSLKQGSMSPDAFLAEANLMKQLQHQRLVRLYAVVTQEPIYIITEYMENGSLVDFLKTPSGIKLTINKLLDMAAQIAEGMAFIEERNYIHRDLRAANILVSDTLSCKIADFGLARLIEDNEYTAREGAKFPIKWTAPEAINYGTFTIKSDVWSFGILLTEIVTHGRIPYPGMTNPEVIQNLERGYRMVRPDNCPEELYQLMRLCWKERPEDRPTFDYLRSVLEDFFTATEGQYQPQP
Briefly: Lck enzyme inhibitory activity (time-resolved fluorometry, biotinylated peptide phosphorylation). Particulars: read-out: LCK_IC50. The procedure, abridged: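 Readout pairs a europium cryptate-labelled anti-phosphotyrosine antibody with XL665-streptavidin, measured by time-resolved fluorescence. IC50 derived from percent inhibition against untreated controls.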

[1] abbreviates: biotinylated peptide phosphorylation.

Read-outs that look alike come from different tables or passages of the source.

T1 sequence (P07947 whole entry): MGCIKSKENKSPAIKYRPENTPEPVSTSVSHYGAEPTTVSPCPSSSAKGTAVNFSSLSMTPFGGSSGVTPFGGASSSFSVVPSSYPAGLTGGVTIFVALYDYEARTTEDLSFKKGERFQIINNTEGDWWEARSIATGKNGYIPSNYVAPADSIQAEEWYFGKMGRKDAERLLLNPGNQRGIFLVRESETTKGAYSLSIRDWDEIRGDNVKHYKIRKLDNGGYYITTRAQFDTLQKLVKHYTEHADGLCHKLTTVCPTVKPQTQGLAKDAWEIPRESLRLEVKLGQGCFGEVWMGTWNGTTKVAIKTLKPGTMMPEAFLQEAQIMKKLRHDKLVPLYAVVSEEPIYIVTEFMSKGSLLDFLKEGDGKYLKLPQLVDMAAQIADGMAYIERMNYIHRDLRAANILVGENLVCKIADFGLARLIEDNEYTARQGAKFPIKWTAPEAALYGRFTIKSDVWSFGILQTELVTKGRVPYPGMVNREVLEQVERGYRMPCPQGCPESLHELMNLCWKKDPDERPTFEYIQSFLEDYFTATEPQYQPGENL

`COc1ccc(Cl)c(S(=O)(=O)Nc2cc3[nH]c(C(=O)c4cnn(-c5ccc(Oc6ccccc6F)cc5C)c4N)cc3cc2OCC(F)F)c1` [Example 5-1-331, N-[2-[5-amino-1-[4-(2-fluorophenoxy)-2-methylphenyl]pyrazole-4-carbonyl]-5-(2,2-difluoroethoxy)-1H-indol-6-yl]-2-chloro-5-methoxybenzenesulfonamide]: the IC50 on human Yes1 enzyme was 7 nM; at human Src enzyme, 330 nM; at human Lck enzyme it was 180 nM.
For the molecule `Cc1cc(Oc2c(F)cccc2F)ncc1-n1ncc(C(=O)c2cc3cc(OC4CCN(C5CCCC5)CC4)c(Br)cc3[nH]2)c1N` [Example 5-1-223, [5-amino-1-[6-(2,6-difluorophenoxy)-4-methylpyridin-3-yl]pyrazol-4-yl]-[6-bromo-5-(1-cyclopentylpiperidin-4-yl)oxy-1H-indol-2-yl] methanone], the IC50 turned out to be 1.5 nM on human Yes1 enzyme, 7.4 nM at human Src enzyme and 7.2 nM on human Lck enzyme.
Turning to `Cc1cc(-n2ncc(C(=O)c3cc4cc(OC5CCN(C6CCC6)CC5)c(Cl)cc4[nH]3)c2N)ccc1Oc1ccccc1F` [Example 5-1-235, [5-amino-1-[4-(2-fluorophenoxy)-3-methylphenyl]pyrazol-4-yl]-[6-chloro-5-(1-cyclobutylpiperidin-4-yl)oxy-1H-indol-2-yl] methanone], the IC50 at human Yes1 enzyme came out at 2.9 nM; at human Src enzyme, 430 nM; on human Lck enzyme, 85 nM.
For the molecule `Cc1cc(Oc2ccccc2F)ccc1-n1ncc(C(=O)c2cc3cc(OC(F)F)c(N4CCOCC4)cc3[nH]2)c1N` [Example 4-25-024, [5-amino-1-[4-(2-fluorophenoxy)-2-methylphenyl]pyrazol-4-yl]-[5-(difluoromethoxy)-6-morpholin-4-yl-1H-indol-2-yl]methanone], the IC50 on human Yes1 enzyme (setting [1]) was determined as 0.69 nM; at human Src enzyme (setting [1]), 55 nM; on human Lck enzyme (setting [1]), 29 nM.
The corresponding values for `Cc1cc(Oc2ccc(F)cc2)ncc1-n1ncc(C(=O)c2cc3cc(Cl)c(NS(C)(=O)=O)cc3[nH]2)c1N` [Example 4-2-092, N-[2-[5-amino-1-[6-(4-fluorophenoxy)-4-methylpyridin-3-yl]pyrazole-4-carbonyl]-5-chloro-1H-indol-6-yl]methanesulfonamide] are 19 nM, 270 nM and 78 nM.
Turning to `Cc1cc(Oc2ccccc2F)ncc1-n1ncc(C(=O)c2cc3cc(N4CCOCC4)c(NS(=O)(=O)CCCF)cc3[nH]2)c1N` [Example 4-24-016, N-[2-[5-amino-1-[6-(2-fluorophenoxy)-4-methylpyridin-3-yl]pyrazole-4-carbonyl]-5-morpholin-4-yl-1H-indol-6-yl]-3-fluoropropane-1-sulfonamide], the results for the IC50 at human Yes1 enzyme (setting [1]), on human Src enzyme (setting [1]) and at human Lck enzyme (setting [1]) were 0.87 nM, 78 nM and 32 nM, respectively.
The corresponding values for `Cc1cc(Oc2ccccc2F)ccc1-n1ncc(C(=O)c2cc3cc(OC(F)F)c(NS(=O)(=O)CCCF)cc3[nH]2)c1N` [Example 4-24-003, N-[2-[5-amino-1-[4-(2-fluorophenoxy)-2-methylphenyl]pyrazole-4-carbonyl]-5-(difluoromethoxy)-1H-indol-6-yl]-3-fluoropropane-1-sulfonamide] are 2.7 nM, 55 nM and 25 nM.
The corresponding values for `Cc1cc(Oc2ccccc2)cc(F)c1-n1ncc(C(=O)c2cc3cc(F)c(NS(=O)(=O)C4CC4)cc3[nH]2)c1N` [Example 4-7-014, N-[2-[5-amino-1-(2-fluoro-6-methyl-4-phenoxyphenyl)pyrazole-4-carbonyl]-5-fluoro-1H-indol-6-yl]cyclopropanesulfonamide] are 4.9 nM, 130 nM and 73 nM.
Turning to `Cc1cc(Oc2cccc(F)c2F)nc(C)c1-n1ncc(C(=O)c2cc3cc(F)c(NS(C)(=O)=O)cc3[nH]2)c1N` [Example 5-1-053, N-[2-[5-amino-1-[6-(2,3-difluorophenoxy)-2,4-dimethylpyridin-3-yl]pyrazole-4-carbonyl]-5-fluoro-1H-indol-6-yl]methanesulfonamide], the IC50 on human Yes1 enzyme turned out to be 65 nM; at human Src enzyme, 430 nM; on human Lck enzyme, 97 nM.
`Cc1cc(Oc2c(F)cccc2F)ncc1-n1ncc(C(=O)c2cc3cc(OC4CCN(C5CCCC5)CC4)c(-c4ccccc4C(F)(F)F)cc3[nH]2)c1N` [Example 5-1-387, [5-amino-1-[6-(2,6-difluorophenoxy)-4-methylpyridin-3-yl]pyrazol-4-yl]-[5-(1-cyclopentylpiperidin-4-yl)oxy-6-[2-(trifluoromethyl)phenyl]-1H-indol-2-yl] methanone]: the IC50 is 3.1 nM on human Yes1 enzyme, 190 nM on human Src enzyme and 29 nM on human Lck enzyme.
The corresponding values for `Cc1cc(Oc2c(F)cccc2F)ncc1-n1ncc(C(=O)c2cc3cc(OC4CCN(C(C)C)CC4)c(C4CCOCC4)cc3[nH]2)c1N` [Example 5-1-248, [5-amino-1-[6-(2,6-difluorophenoxy)-4-methylpyridin-3-yl]pyrazol-4-yl]-[6-(oxan-4-yl)-5-(1-propan-2-ylpiperidin-4-yl)oxy-1H-indol-2-yl]methanone] are 0.97 nM, 7.9 nM and 4.7 nM.
For the molecule `Cc1cc(Oc2ccccc2F)ccc1-n1ncc(C(=O)c2cc3cc(OC(F)F)c(N4C(=O)NC(C)(C)C4=O)cc3[nH]2)c1N` [Example 4-23-035, 3-[2-[5-amino-1-[4-(2-fluorophenoxy)-2-methylphenyl]pyrazole-4-carbonyl]-5-(difluoromethoxy)-1H-indol-6-yl]-5,5-dimethylimidazolidine-2,4-dione], the figures for the IC50 at human Yes1 enzyme (setting [1]), on human Src enzyme (setting [1]) and on human Lck enzyme (setting [1]) were 0.63 nM, 30 nM and 7 nM, respectively.
Take `Cc1cc(-n2ncc(C(=O)c3cc4cc(OC5CCN(C(C)C)CC5)c(-c5cnn(C)c5)cc4[nH]3)c2N)ccc1Oc1ccccc1F` [Example 5-1-236, (5-amino-1-(4-(2-fluorophenoxy)-3-methylphenyl)-1H-pyrazol-4-yl)(5-((1-isopropylpiperidin-4-yl)oxy)-6-(1-methyl-1H-pyrazol-4-yl)-1H-indol-2-yl)methanone]: the values for the IC50 at human Yes1 enzyme, at human Src enzyme and at human Lck enzyme were 1.5 nM, 140 nM and 41 nM, respectively.
As for `Cc1cc(Oc2c(F)cccc2F)ncc1-n1ncc(C(=O)c2cc3cc(F)c(N4C(=O)N[C@@H](C(C)C)C4=O)cc3[nH]2)c1N` [Example 5-1-431, (5S)-3-[2-[5-amino-1-[6-(2,6-difluorophenoxy)-4-methylpyridin-3-yl]pyrazole-4-carbonyl]-5-fluoro-1H-indol-6-yl]-5-propan-2-ylimidazolidine-2,4-dione], the IC50 on human Yes1 enzyme (setting [1]) was determined as 4.9 nM; at human Src enzyme (setting [1]), 190 nM; on human Lck enzyme (setting [1]), 20 nM.
As for `Cc1ccccc1-c1cc2[nH]c(C(=O)c3cnn(-c4cnc(Oc5c(F)cccc5F)cc4C)c3N)cc2cc1OC1CCN(C2CS(=O)(=O)C2)CC1` [Example 5-1-338, [5-amino-1-[6-(2,6-difluorophenoxy)-4-methylpyridin-3-yl]pyrazol-4-yl]-[5-[1-(1,1-dioxothietan-3-yl)piperidin-4-yl]oxy-6-(2-methylphenyl)-1H-indol-2-yl]methanone], the IC50 on human Yes1 enzyme worked out at 3 nM; on human Src enzyme it was 180 nM; on human Lck enzyme it was 30 nM.
Regarding `COc1cccc(S(=O)(=O)Nc2cc3[nH]c(C(=O)c4cnn(-c5cnc(Oc6ccccc6F)cc5C)c4N)cc3cc2OCC(F)F)c1` [Example 5-1-419, N-[2-[5-amino-1-[6-(2-fluorophenoxy)-4-methylpyridin-3-yl]pyrazole-4-carbonyl]-5-(2,2-difluoroethoxy)-1H-indol-6-yl]-3-methoxybenzenesulfonamide], the IC50 on human Yes1 enzyme (setting [1]) is 5.6 nM; on human Src enzyme (setting [1]) it was 790 nM; on human Lck enzyme (setting [1]), 220 nM.
With `Cc1cc(Oc2c(F)cccc2F)ncc1-n1ncc(C(=O)c2cc3cc(F)c(N4C(=O)C(C)(C)NC4=S)cc3[nH]2)c1N` [Example 5-1-115, 3-[2-[5-amino-1-[6-(2,6-difluorophenoxy)-4-methylpyridin-3-yl]pyrazole-4-carbonyl]-5-fluoro-1H-indol-6-yl]-5,5-dimethyl-2-sulfanylideneimidazolidin-4-one], the figures for the IC50 at human Yes1 enzyme, on human Src enzyme and at human Lck enzyme were 2.3 nM, 52 nM and 7 nM, respectively.
The corresponding values for `Cc1cc(Oc2ccccc2F)ccc1-n1ncc(C(=O)c2cc3cc(OCC(F)F)c(N4C(=O)OC[C@@H]4Cc4ccccc4)cc3[nH]2)c1N` [Example 5-1-245, (4S)-3-[2-[5-amino-1-[4-(2-fluorophenoxy)-2-methylphenyl]pyrazole-4-carbonyl]-5-(2,2-difluoroethoxy)-1H-indol-6-yl]-4-benzyl-1,3-oxazolidin-2-one] are 7.1 nM, 23 nM and 57 nM.
`Cc1cc2cc(C(=O)c3cnn(-c4cnc(Oc5ccccc5F)cc4C)c3N)[nH]c2cc1NS(=O)(=O)c1cccnc1` [Example 5-1-441, N-[2-[5-amino-1-[6-(2-fluorophenoxy)-4-methylpyridin-3-yl]pyrazole-4-carbonyl]-5-methyl-1H-indol-6-yl]pyridine-3-sulfonamide]: the IC50 on human Yes1 enzyme (setting [1]) was found to be 1.8 nM; at human Src enzyme (setting [1]), 280 nM; on human Lck enzyme (setting [1]) it was 73 nM.

For the origin of these results see US10479780B2, “Aminopyrazole derivatives” (Chugai Seiyaku Kabushiki Kaisha, priority 2015, dated 2019).
